Data reported in patent publication US12023335B2, “Method for treating pancreatic cancer” (PTC THERAPEUTICS, INC., priority 2018, dated 2024).

What was measured:
[1] = system: PDA tumors in KPC mice; experiment: KPC intervention/survival study; type: in vivo; conditions: KPC mice (FIGS. 7a, 7b)
Description: Tumor formation in KPC mice was monitored by weekly palpation until the detection of a mass. Upon positive palpation, the mass was monitored by twice weekly ultrasound until the tumor reached an enrollable size of 4-7 mm average diameter. Once enrollable, KPC mice were randomly enrolled into a treatment arm of the intervention study. Mice were treated with vehicle, Compound 1 (17 mg/kg, PO, b.i.w.), gemcitabine alone (100 mg/kg, IP, b.i.w.), or Compound 1+gemcitabine. Mice receiving Compound 1 also received gemcitabine vehicle (saline, IP, b.i.w.) at a volume (μL) of 50× body weight (g). Mice receiving gemcitabine also received Compound 1 vehicle (0.5% hydroxypropylmethylcellulose with 0.1% Tween80 (w/v), PO, b.i.w.) at a volume (μL) of 5.7× body weight (g). All drug and vehicle combinations were administered simultaneously.
Tumor ultrasonography and volume quantification were carried out as described in Sastra S A, Olive K P, Quantification of murine pancreatic tumors by high-resolution ultrasound, Methods Mol Biol 2013; 980:249-66. […]
To prepare samples for immunohistochemistry, tissues were first fixed overnight in 10% phosphate-buffered formalin and then stored in 70% ethanol for long-term storage. […] Next, antigen retrieval was carried out in an experimentally determined, antibody-specific antigen retrieval buffer (usually 10 mM citrate, pH 6.0 or 10 mM Tris, pH 10.0). […]

[2] = system: BMI-1; experiment: Western blot of BMI-1 levels in PDA cell lines; type: cell-based, human; conditions: Aspc1, MiaPaCa-2, Panc1 cells; 0.1 μM or 1.0 μM, 24 hours (FIG. 10a)
Description: Western blotting was carried out on lysates isolated from treated cells. Cells were lysed using RIPA buffer (50 mM Tris, pH 7.4, 150 mM NaCl, 1% Nonidet P-40, 0.1% SDS, 0.5% deoxycholate) supplemented with cOmplete™ EDTA-free Protease Inhibitor Cocktail (Sigma, 11836170001) and Halt™ Phosphatase Inhibitor Cocktail (ThermoFisher, 78420). Lysates were quantified using the Pierce BCA Protein Assay Kit (ThermoFisher, 23227), diluted in SDS sample buffer, resolved by SDS-PAGE (15-30 μg/sample), and transferred onto PVDF membranes. Membranes were blocked with 5% w/v nonfat dry milk in TBS-T (0.1% Tween20) and primary antibodies were incubated overnight at 4° C., diluted in 5% BSA in TBS-T at the indicated concentrations. HRP-conjugated secondary antibodies were incubated in blocking buffer for 1 hour at room temperature before detection using Super Digital-ECL™ substrate solution (Kindle Biosciences, R1002). (FIG. 5b, FIG. 10a and FIG. 11b)
Western Blot Antibodies: • Bmi1: Cell Signaling, #5856, 1:1000 • Vinculin: Cell Signaling, #4650S, 1:1000 • Beta-tubulin: Cell Signaling, #2146S, 1:1000 P-Glycoprotein Substrate Activity Experiment

[3] = system: Aspc1 cells; experiment: Cell cycle analysis by flow cytometry (DNA content, PH3) in Aspc1 cells; type: cell-based, human
Description: Cells were seeded into 12-well or 6-well plates such that 16 hours later they would be approximately 30-50% confluent. Cells were then treated for 24 hours with either DMSO (<0.003%), Compound 1 (100 nM or 1 μM), or 100 nM nocodazole (Sigma, M1404). Following treatment, cells were harvested and fixed in ice-cold 70% ethanol for a minimum of one hour. Following fixation, cells were re-suspended in PBS+2% FBS+3 μM DAPI (BioLegend, 422801) or 0.25 μg 7-AAD (BD Pharmingen, 559925), and analyzed on a MACSQuant® Analyzer 10 (Miltenyi Biotec) or BD LSR II™. For cell cycle analysis time course experiments, cells were prepared as described above, except treated for 24, 48, or 72 hours. Data was analyzed using FlowJo software. Percent populations in G2/M were identified using the univariate cell cycle platform offered by FlowJo software. Percent populations >4N were determined by gating above the 4N population of DMSO-treated cells. (FIG. 1b, FIG. 1c, FIG. 2a, FIG. 2b, FIG. 10e, and FIG. 10g)
For phospho-Histone H3 (PH3) staining, cells were fixed and permeabilized according to manufacturer's instructions using the eBioscience Foxp3/Transcription Factor Staining Buffer Set (ThermoFisher, 00-5523-00). Cells were blocked with Fc Block (BD Biosciences, 564220) and stained using a PH3 (Ser10) antibody (BioLegend, 650805) with 5 uL per million cells (45 min, room temp, dark). Samples were analyzed on a BD Fortessa™ and analyzed by FlowJo software. (FIG. 1d and FIG. 3a)

Compound: Cc1nc2ccc(F)cc2n1-c1nc(N)c(F)c(Nc2ccc(C(F)(F)F)cc2)n1 [Compound 1, 5-fluoro-2-(6-fluoro-2-methyl-1H-benzo[d]imidazol-1-yl)-N4-[4-(trifluoromethyl)phenyl]pyrimidine-4,6-diamine]
- tumor volumes by high resolution 3D ultrasound [1]: time-dependent decrease in KPC mouse model PDA tumor volume
- BMI-1 levels relative to vinculin [2]: consistent reduction in BMI-1 protein expression in various cell types
- cell cycle arrest (percent cells in G0/G1, S, G2/M; percent in mitosis PH3+/4N) ([3]; 0.1 μM or 1.0 μM, 24 hours (FIGS. 1b-1d)): dose and time-dependent effect in cell cycle arrest
- percent of Aspc1 cells with DNA content >4N (polyploidy) ([3]; 0.1 μM or 1.0 μM, 24, 48, 72 hours (FIGS. 2a, 2b)): dose and time-dependent increase in the amount of human PDA cells affected by polyploidy
- mitotic arrest and apoptosis ([3]; multiple PDA cell lines (summary statement)): induce mitotic arrest and apoptosis in multiple PDA cell lines
